Experimental data from paper PMC11602115 (Journal of Medicinal Chemistry, 2017).

Tests used:
[1] = target: T1, EP1 (Homo sapiens, UniProt P34995); experiment: Radioligand binding, EP1 ([3H]-PGE2); parameters: purchased MDS Pharma (Taiwan) and CEREP (France), contract assays; details: cloned human receptor; mean of two determinations
T1 sequence (P34995 1-402): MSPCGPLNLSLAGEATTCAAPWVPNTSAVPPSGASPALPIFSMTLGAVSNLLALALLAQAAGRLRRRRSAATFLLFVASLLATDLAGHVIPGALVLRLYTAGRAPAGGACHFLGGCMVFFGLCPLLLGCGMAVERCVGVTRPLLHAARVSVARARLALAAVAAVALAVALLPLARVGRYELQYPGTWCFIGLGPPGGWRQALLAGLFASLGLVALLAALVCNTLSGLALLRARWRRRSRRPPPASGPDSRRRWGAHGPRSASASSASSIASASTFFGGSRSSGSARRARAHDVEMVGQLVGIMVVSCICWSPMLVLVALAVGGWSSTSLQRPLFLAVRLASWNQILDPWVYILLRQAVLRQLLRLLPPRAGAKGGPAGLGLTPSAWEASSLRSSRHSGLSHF
Description: Additional (non-IP) receptor binding assays were carried out by MDS Pharma (Taiwan) and CEREP (France).

[2] = Dog PK (iv and oral); format: in vivo, Beagle dogs
[3] = iv PK in bile-duct cannulated (BDC) versus normal rats; format: in vivo, rat; details: iv administration
Excerpt: One explanation for the prolonged exposure was the possibility of enterohepatic recirculation. […] A more definitive study was therefore conducted in bile-duct cannulated (BDC) rats.

[4] = Monkey PK (iv and oral); format: in vivo, cynomolgus monkeys
[5] = Mouse PK (iv and oral); format: in vivo, male CD-1 mice
[6] = Metabolite profile of 5c in the rat; format: in vivo; details: in vivo following dosing of 5g
Excerpt: A taurine-conjugated metabolite was subsequently identified in bile (M1, Figure 4), which was also observed in circulating plasma, although at much lower concentrations (∼5%) compared to parent. Further, two oxidized products, one of which was also a taurine-conjugate, were identified (M2 and M3) in plasma. […] It is known that taurine can be conjugated to bile acids and these conjugates may be hydrolyzed in the gut which allows for bile acid reabsorbtion.[19]

[7] = target: IP (Homo sapiens, UniProt P43119); experiment: Radioligand binding, human IP ([3H]-iloprost); parameters: expressed in transfected cells; host or cells: CHO-K1 (crude membranes); details: cloned human receptor; read-out: Ki IP ([3H]-iloprost)
Description: CHO-K1 cells expressing recombinant IP receptors were harvested, washed with ice-cold phosphate buffered saline, pH 7.4 (PBS), and then centrifuged at 48 000g for 20 min at 4 °C. The resulting cell pellet was then resuspended in ice-cold PBS containing 20 mM HEPES, pH 7.4, and 0.1 mM EDTA, homogenized on ice using a Brinkman Polytron, and centrifuged (48 000g for 20 min at 4 °C). This resuspension and centrifugation process was repeated one further time. Crude membrane pellets were stored at −80 °C until used for radioligand binding assays.
Assay incubations were terminated by rapid filtration through PerkinElmer GF/C filtration plates pretreated with 0.3% PEI, under vacuum pressure using a 96-well Packard filtration apparatus, followed by multiple washes with ice-cold wash buffer (PBS containing 20 mM HEPES and 0.1 mM EDTA, pH 7.4). Plates were then dried at 45 °C for a minimum of 2 h. Finally, 25 μL of BetaScint scintillation cocktail was added to each well and plates were counted in a Packard TopCount scintillation counter. In each competition study, test compounds were dosed at 10 concentrations with triplicate determinations at each test concentration.

[8] = tested on: human platelet; experiment: Inhibition of ADP-induced human platelet aggregation; format: cell-based; details: aggregation induced by 2.5 μM ADP, mean of at least two determinations
Description: Such aggregated and activated platelets produce vasoactive substances such as thromboxane and serotonin that may cause harmful vasoconstriction and vascular remodeling.[13] […] This secondary assay was carried out as previously described,[14] with aggregation induced by 2.5 μM ADP in the presence or absence of IP receptor agonists.

Sequence of IP (P43119 whole entry): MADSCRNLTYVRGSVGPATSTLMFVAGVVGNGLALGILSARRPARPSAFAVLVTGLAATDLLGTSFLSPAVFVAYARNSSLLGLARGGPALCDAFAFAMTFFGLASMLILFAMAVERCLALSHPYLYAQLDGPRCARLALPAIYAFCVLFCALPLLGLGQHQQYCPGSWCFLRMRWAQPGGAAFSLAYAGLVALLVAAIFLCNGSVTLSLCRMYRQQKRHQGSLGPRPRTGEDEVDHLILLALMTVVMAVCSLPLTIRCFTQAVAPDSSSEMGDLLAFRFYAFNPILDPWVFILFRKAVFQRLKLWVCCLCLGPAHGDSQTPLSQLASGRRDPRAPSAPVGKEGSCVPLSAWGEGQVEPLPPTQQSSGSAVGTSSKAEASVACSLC

O=C(O)COC[C@H]1CC[C@H](COC(=O)N(c2ccccc2)c2ccc(Cl)cc2)CC1 [5c, Sodium 2-(((1r,4r)-4-(((4-Chlorophenyl)(phenyl)carbamoyloxy)methyl)cyclohexyl)methoxy)acetate]
Ki [1]: 9.6 µM | half-life ([2]; beagle, plasma, oral, 0.2 mg/kg, read-out: elimination half-life in dog (converted)): 10 h | AUC0–inf ([2]; iv 0.2 mg/kg): 1050 ± 300 ng·h/mL | Clobs ([2]; iv 0.2 mg/kg): 0.202 ± 0.057 L h^–1 kg^–1 | T1/2 ([2]; iv 0.2 mg/kg): 3.54 ± 0.42 h | AUC0–inf ([2]; po 0.2 mg/kg): 719 ± 290 ng·h/mL | Cmax ([2]; po 0.2 mg/kg): 327 ± 16 ng/mL | F ([2]; po 0.2 mg/kg): 68.4% | T1/2 ([2]; po 0.2 mg/kg): 9.79 ± 0.94 h | Tmax ([2]; po 0.2 mg/kg): 0.417 ± 0.144 h | AUC0–inf ([2]; po 2 mg/kg): 9750 ± 5270 ng·h/mL | Cmax ([2]; po 2 mg/kg): 3440 ± 900 ng/mL | F ([2]; po 2 mg/kg): 92.9% | T1/2 ([2]; po 2 mg/kg): 5.53 ± 1.48 h | Tmax ([2]; po 2 mg/kg): 0.833 ± 0.289 h | reduction in the apparent plasma half-life in BDC rats ([3]; BDC versus normal rats): 3 fold | concentrations in bile and urine compared to plasma ([3]; rat): negligible | half-life ([4]; cynomolgus monkey, plasma, oral, 0.1 mg/kg, read-out: elimination half-life in monkey (converted)): 18 h | AUC0–inf ([4]; monkey, iv 0.1 mg/kg): 145 ± 95 ng·h/mL | Clobs ([4]; monkey, iv 0.1 mg/kg): 0.881 ± 0.579 L h^–1 kg^–1 | T1/2 ([4]; monkey, iv 0.1 mg/kg): 24.2 ± 2.1 h | AUC0–inf ([4]; monkey, po 0.1 mg/kg): 161 ± 116 ng·h/mL | Cmax ([4]; monkey, po 0.1 mg/kg): 12.1 ± 3.6 ng/mL | F ([4]; monkey, po 0.1 mg/kg): 98.7% | T1/2 ([4]; monkey, po 0.1 mg/kg): 17.5 ± 3.4 h | Tmax ([4]; monkey, po 0.1 mg/kg): 2.67 ± 2.89 h | AUC0–inf ([4]; monkey, po 0.5 mg/kg): 2900 ± 1350 ng·h/mL | Cmax ([4]; monkey, po 0.5 mg/kg): 92.8 ± 29.7 ng/mL | F ([4]; monkey, po 0.5 mg/kg): >100% | T1/2 ([4]; monkey, po 0.5 mg/kg): 38.7 ± 21.3 h | Tmax ([4]; monkey, po 0.5 mg/kg): 4.17 ± 3.18 h | T1/2 ([5]; iv […]): 5.59 h | AUC0–inf ([5]; po 9.49 mg/kg): 11500 ng·h/mL | Cmax ([5]; po 9.49 mg/kg): 4940 ng/mL | F ([5]; po 9.49 mg/kg): 83.4% | T1/2 ([5]; po 9.49 mg/kg): 8.08 h | Tmax ([5]; po 9.49 mg/kg): 0.250 h

O=C(O)COC[C@H]1CC[C@H](COC(=O)N(c2ccccc2)c2cccc(F)c2)CC1 [5g, 2-(((1r,4r)-4-(((3-Fluorophenyl)(phenyl)carbamoyloxy)methyl)cyclohexyl)methoxy)acetic Acid]
taurine conjugate metabolite in vivo [6]: no analogous conjugate was observed | Ki [7]: 0.007 µM | IC50 [8]: 0.018 µM
